{"source": "patent US20120070417A1", "about": "“ANTI-INFLUENZA FORMULATIONS AND METHODS” (priority 2009, published 2012)", "system": "Influenza A/WSN/33/1", "format": "cell-based", "note": "Like-named read-outs stand apart in the source and are kept apart here."}
{"smiles": "CCOC(=O)C1=C[C@@H](OC(CC)CC)[C@H](NC(C)=O)[C@@H](N)C1", "note": "[oseltamivir, (3R,4R,5S)-4-acetylamino-5-amino-3(1-ethylpropoxy)-1-cyclohexene-1-carboxylic acid ethyl ester]", "values": [{"measurement": "reduced influenza titers compared to untreated (air) control", "setting": "1 nM oseltamivir in basolateral media", "value": 5, "unit": "fold"}]}
{"smiles": "CC(=O)NC1[C@@H](NC(=N)N)C=C(C(=O)O)O[C@H]1[C@H](O)[C@H](O)CO", "note": "(stereo partly drawn) [zanamivir, 5-(acetylamino)-4-[(aminoiminomethyl)-amino]-2,6-anhydro-3,4,5-trideoxy-D-glycero-D-galacto-non-2-enoic acid]", "values": [{"measurement": "reduced viral titers compared to the untreated control", "setting": "0.1 nM zanamivir alone", "value": 40, "unit": "fold"}, {"measurement": "viral infection, dose response", "setting": "[…], p<0.01 vs untreated (Air) control", "value": "reduced viral infection in a dose responsive manner"}]}
{"smiles": "NC(=O)c1ncn([C@@H]2O[C@H](CO)[C@@H](O)[C@H]2O)n1", "note": "[ribavirin]", "values": [{"measurement": "reduced influenza titers compared to untreated (air) control", "setting": "10 nM ribavirin in basolateral media, p>0.05", "value": 6.3, "unit": "fold"}]}
{"smiles": "CC(N)C12CC3CC(CC(C3)C1)C2", "note": "(stereo not drawn) [rimantadine]", "values": [{"measurement": "reduced influenza titers compared to untreated (air) control", "setting": "1 nM rimantadine in basolateral media, p>0.05", "value": 9.6, "unit": "fold"}, {"measurement": "reduced viral titers compared to the untreated control", "setting": "10 nM rimantadine in basolateral media, p<0.001", "value": 185, "unit": "fold"}]}
